Like-named read-outs stand apart in the source and are kept apart here.
How the values were obtained:
aconitate hydratase (AH) [1] = tested on: T1, aconitate hydratase (AH); details: read-out: Citrate / Km; enzyme from cells grown at pH 5.5; 50 mM Tris-HCl pH 7.8, 25 °C; partially purified
T1 construct: gene ACO1

aconitate hydratase (AH) [2] = tested on: T2, aconitate hydratase (AH); assay: spectrophotometric at […] nm; Lineweaver-Burk; type: biochemical, Yarrowia lipolytica; details: enzyme from cells grown at pH 5.5; 50 mM Tris-HCl pH 7.8, 25 °C; partially purified; reverse reaction; read-out: Isocitrate / Km
T2 construct: gene ACO1; cells grown at pH 5.5; [4Fe-4S] enzyme

| Km (aconitate hydratase (AH) [2]) [µM] | Structure (SMILES) | Km (aconitate hydratase (AH) [1]) [µM] |
| --- | --- | --- |
|  | O=C(O)CC(O)(CC(=O)O)C(=O)O [citrate] | 320 ± 11 |
| 270 ± 15 | O=C(O)C[C@H](C(=O)O)[C@@H](O)C(=O)O [isocitrate] |  |
